{
  "source": "patent US11008549B2",
  "about": "“In vitro model for a tumor microenvironment” (HemoShear, LLC, priority 2013, dated 2021)",
  "key": {"[1]": {"conditions": "cited from earlier work; for Cmax: steady state plasma Cmax, patients, established therapeutic dosing; for in vivo Cmax level achieved in humans: human"}, "A549 cells": {"tested_on": "A549 cells", "conditions": "static 2D cultures, cited from earlier work"}, "A549 tumor cells": {"tested_on": "A549 tumor cells", "experiment": "Growth of A549 tumor cells in tri-cultures under tumor capillary hemodynamics (PICOGREEN cell number)", "type": "cell-based", "conditions": "drug at human Cmax, day seven, tri-culture without exogenous ECM, hemodynamic flow and transport, vs vehicle", "description": "The vehicle control or drug was added to the inflow media for the endothelial cell layer and perfused into the upper volume. Tri-cultures were maintained in the presence of absence of drugs for up to seven days under hemodynamic flow and transport. Cell number was determined at day seven using the QUANT-IT PICOGREEN dsDNA Assay Kit according to the manufacturer's instructions (Life Technologies, Grand Island, N.Y.)."}, "[2]": {"conditions": "steady state plasma Cmax at therapeutic doses in mice, read-out: Mouse Cmax, cited from earlier work"}, "rat hepatocytes [3]": {"tested_on": "rat hepatocytes", "experiment": "In vitro fatty liver model, total triglycerides", "type": "cell-based", "conditions": "1.5 μM, high insulin/glucose fatty liver media, controlled hemodynamics, day 7", "description": "After 1 hour, the [sequence] were inverted and placed into cell culture dishes, and media was added (9 ml in the lower volume and 6 ml in the upper volume). After 24 hours (i.e., on day 2 of the experiments), the media was changed to maintenance media (the healthy or fatty liver media described above) and the Petri dishes were placed in the cone-and-plate hemodynamic flow device, and controlled hemodynamics were applied to the surface of the porous membrane of the [sequence] in the upper volume. […] The cells were cultured under controlled hemodynamics until day 7, when hepatocytes were examined using the assays described below.\nAt the end of the treatment period, cells were collected from the porous membranes by scraping with a rubber policeman and PBS, after which they were centrifuged (2,000×g for 10 minutes at 4° C.). The cell pellets were resuspended in 100 μl of cold diluted Standard Diluent from the triglyceride assay kit and sonicated 20 times at one second bursts. The cell suspension was then centrifuged at 10,000×g for 10 minutes at 4° C. The supernatant was removed and used for the assay as per the manufacturer's protocol and normalized to protein content from the same samples. […]"}, "rat hepatocytes [4]": {"tested_on": "rat hepatocytes", "experiment": "In vitro fatty liver model, metabolic gene expression (RT-PCR)", "type": "cell-based", "conditions": "1.5 μM, high insulin/glucose fatty liver media, controlled hemodynamics, day 7", "description": "(§1) RT-PCR: Changes in metabolic, toxic, and insulin/glucose/lipid pathway genes were assessed by extracting RNA from hepatocytes from devices run under healthy and steatotic conditions at the end of the culture period (7 or 14 days) and performing RT-PCR on this RNA. The [sequence] were removed from the devices and washed with PBS prior to scraping the cells off the porous membrane. Total RNA was isolated using a [sequence] RNA Mini Kit (a kit for purification of total RNA from cells) and reverse transcribed to cDNA using the ISCRIPT cDNA Synthesis Kit (a cDNA synthesis kit). Primers were designed for the metabolic genes CYP1A1, CYP1A2, CYP3A2, MDR, and GST as well as the insulin/glucose/lipid pathway genes GPAT, ACC1, IRS-2, PPAR-γ, SREBP, ChREBP, LXR, SCD1, CPT1.\nAfter 1 hour, the [sequence] were inverted and placed into cell culture dishes, and media was added (9 ml in the lower volume and 6 ml in the upper volume). After 24 hours (i.e., on day 2 of the experiments), the media was changed to maintenance media (the healthy or fatty liver media described above) and the Petri dishes were placed in the cone-and-plate hemodynamic flow device, and controlled hemodynamics were applied to the surface of the porous membrane of the [sequence] in the upper volume. […]"}, "primary rat hepatocytes [5]": {"tested_on": "primary rat hepatocytes", "experiment": "Gluconeogenesis assay (AMPLEX RED glucose in supernatant)", "type": "cell-based", "conditions": "4 hours; for Effect (% Change) on glucose levels: insulin 2 nM or glucagon 100 nM; for decreased glucose levels by: insulin 2 nM"}, "primary rat hepatocytes [6]": {"tested_on": "primary rat hepatocytes", "conditions": "4 h, 1 μM", "description": "The hepatocytes were then washed with PBS and incubated with serum free hepatocyte medium with or without known toxic drug chlorpromazine (CPZ) at two different concentrations (1 μM and 10 μM) for 4 hours. Supernatants from the cells were collected and microRNA extraction was performed using the [sequence] serum/plasma kit (a kit for extracting microRNA, Qiagen). The cDNA was prepared by using the [sequence] RT kit (a kit for preparing cDNA, Qiagen) and samples quantified using the [sequence] SYBR GREEN PCR kit (a kit for quantifying cDNA, Qiagen), following the manufacturer's instructions.\nPrimary rat hepatocytes isolated and plated as described above were cultured in the cone-and-plate devices under controlled hemodynamic conditions or were cultured under static conditions (controls) for 7 days. The hepatocytes were washed with PBS and immediately incubated with either vehicle (distilled water) or chlorpromazine (1 μM) for 4 hours."}, "[7]": {"tested_on": "primary human hepatocytes", "conditions": "72 h", "description": "MTT Assay: To assess toxicity responses of human hepatocytes, the cells were plated and cultured in the cone-and-plate devices under hemodynamic conditions using the operating conditions described above or were cultured under static conditions (controls) for 7 days before being exposed to either 0.1% DMSO or known toxic drug chlorpromazine (0.1 μM, 1 μM and 10 μM) for 72 hours. Hepatocytes were then incubated with medium containing lmg/ml of MTT reagent (thiazolyl blue tetrazolium bromide) for 1 hour, following which the cells were lysed in DMSO to release the formazan blue dye formed. The solution was transferred to a 96 well plate and the absorbance was read at 595 nm."}, "[8]": {"tested_on": "primary human hepatocytes", "conditions": "72 h, 1 μM", "experimental": "RT-PCR: Changes in metabolic, toxic, and insulin/glucose/lipid pathway genes were assessed by extracting RNA from hepatocytes from devices run under healthy and steatotic conditions at the end of the culture period (7 or 14 days) and performing RT-PCR on this RNA. The […] were removed from the devices and washed with PBS prior to scraping the cells off the porous membrane. Total RNA was isolated using a […] RNA Mini Kit (a kit for purification of total RNA from cells) and reverse transcribed to cDNA using the ISCRIPT cDNA Synthesis Kit (a cDNA synthesis kit). Primers were designed for the metabolic genes CYP1A1, CYP1A2, CYP3A2, MDR, and GST as well as the insulin/glucose/lipid pathway genes GPAT, ACC1, IRS-2, PPAR-γ, SREBP, ChREBP, LXR, SCD1, CPT1. Primer sequences are shown below in Table 3:\nRNA expression was analyzed by real-time RT-PCR using IQ SYBR Green Supermix (a PCR reagent mixture for RT-PCR) and a CFX96 Real-Time System with C1000 Thermal Cycler (an RT-PCR detection system and thermal cycler). RNA data were normalized to endogenous expression of β2-microglobulin and reported as a relative quantity compared to healthy cultures.\nHuman genes assessed for metabolism and toxicity experiments included CYP1A1. CYP2A6, CYP2B6, CYP2C9, CYP2D6, CYP3A4, CYP3A5, GSTA1, UGT1A1, GSR, SORD, TXNRD1, and APEX1.\nCryopreserved primary human hepatocytes thawed and plated as described above were cultured in the cone-and-plate devices under controlled hemodynamics or were cultured under static conditions (controls) for 7 days before being exposed to different concentrations of chlorpromazine (0.1 μM, 1 μM, and 10 μM) or vehicle control for 72 hours. Live-dead staining was performed on the hepatocytes with ethidium-calcein stain. Hepatocytes were also incubated with MTT reagent for 1 hour to assess viability. RNA was extracted from additional segments and RT-PCR was performed to assess selected toxicity and metabolic genes."}, "primary rat hepatocytes [9]": {"tested_on": "primary rat hepatocytes", "experiment": "Toxicity of inducer concentration to rat hepatocytes under controlled flow", "type": "cell-based", "conditions": "50 μM, concentration recommended for inducing static cultures", "description": "As a result the concentration of the dexamethasone was decreased to 1 μg/ml in order to get an inductive response, a level that correlates well with plasma concentrations seen in vivo in rats."}, "cytochrome p450 3A": {"tested_on": "cytochrome p450 3A", "experiment": "Cytochrome p450 3A activity (P450-GLO) in rat hepatocytes after inducer", "type": "in vitro ADME", "conditions": "controlled hemodynamics, dexamethasone 02.5 μM, 48 hours, day 7", "description": "(§2) Cytochrome Activity Assays: Hepatocytes were cultured in the cone-and-plate devices under static or controlled hemodynamic conditions for five days, and then treated with 0.1% dimethyl sulfoxide (DMSO) or known inducers of cytocrhome enzymesβ-methylcholanthrene and dexamethasone) for 48 hours. Porous membrane segments roughly 2 cm^2 in area were excised and transferred to standard 24-well plates alongside corresponding static cultures. The cells were incubated with 500 μl of hepatocyte media containing substrates from commercially available P450-GLO kits (kits for luminescent cytochrome p450 assays) at the manufacturer-recommended concentrations. After 4 hours, the media was transferred to 96-well plates and assayed for luminescent metabolites to reflect cytochrome p450 activity as per the manufacturer protocol.\n(§3) To validate that the increase in metabolic genes and proteins translated to changes in metabolic activity, primary rat hepatocytes were cultured as described earlier in the cone-and-plate devices under controlled hemodynamics (0.6 dynes/cm^2) and in static collagen gel cultures. […]"}, "cytochrome p450 1A/1B": {"tested_on": "cytochrome p450 1A/1B", "experiment": "Cytochrome p450 1A/1B activity (P450-GLO) in rat hepatocytes after inducer", "type": "in vitro ADME", "conditions": "controlled hemodynamics, 3-MC 0.1 μM, 48 hours, day 7", "description": "as §2, §3"}, "primary rat hepatocytes [10]": {"tested_on": "primary rat hepatocytes", "experiment": "Gene expression of oxidative stress-related genes, MRP3 and MRP4 in rat hepatocytes", "type": "cell-based", "conditions": "controlled hemodynamic conditions, in vivo/clinical plasma Cmax concentrations", "description": "as §1"}, "primary rat hepatocytes [11]": {"tested_on": "primary rat hepatocytes", "experiment": "CDFDA/CDF bile canalicular imaging (cholestatic changes)", "type": "cell-based", "conditions": "controlled hemodynamic conditions, 48 hours", "experimental": "For imaging of the biliary activity at canalicular junctions, sections of the porous membrane of the TRANSWELL were washed with PBS and incubated with media containing 10 μM carboxy-2,7-dichlorofluorescein diacetate (CDFDA) for 10 minutes. Samples were then washed with PBS and placed on glass slide for confocal imaging.\nThe hepatocytes were washed with PBS and immediately incubated with the substrate 10 uM carboxy-2,7-dichlorofluorescein diacetate (CDFDA). The cells were imaged by confocal microscopy during a 20-min exposure to the nonfluorescent substrate CDFDA to allow for the hydrolysis of the substrate to the highly fluorescent Mrp-2 substrate carboxy-2,7-dichlorofluorescein (CDF) and its active secretion into the bile canalicular structures."}, "[12]": {"conditions": "No substrate, controlled hemodynamics"}, "[13]": {"conditions": "substrate Glycerol 2 mM, controlled hemodynamics"}, "[14]": {"conditions": "substrate Lactate/Pyruvate (20 mM/2 mM), controlled hemodynamics"}},
  "note": "Where two headings read alike, the source gives them in different places.",
  "data": [
    {"compound": "NC1(c2ccc(-c3nc4ccn5c(=O)[nH]nc5c4cc3-c3ccccc3)cc2)CCC1", "note": "[MK2206]", "values": [
      {"measurement": "Cmax", "setting": "[1]", "value": 160, "unit": "nM"},
      {"measurement": "IC50", "setting": "A549 cells", "value": 3, "unit": "µM"},
      {"measurement": "inhibited A549 growth", "setting": "A549 tumor cells", "value": 44, "unit": "%"},
      {"measurement": "Cmax", "setting": "[2]", "value": 540, "unit": "nM"}
    ]},
    {"compound": "CCc1ccc(CCOc2ccc(CC3SC(=O)NC3=O)cc2)nc1", "note": "(centres unmarked) [pioglitazone]", "values": [
      {"measurement": "total triglyceride content of hepatocytes", "setting": "rat hepatocytes [3]", "value": "reduced total triglyceride content"},
      {"measurement": "expression of metabolic genes such as Cyp3A2", "setting": "rat hepatocytes [4]", "value": "restored the expression of metabolic genes"}
    ]},
    {"compound": "Cn1cnc2c(F)c(Nc3ccc(Br)cc3Cl)c(C(=O)NOCCO)cc21", "note": "[AZD6244/Selumetinib, Selumetinib]", "values": [
      {"measurement": "Cmax", "setting": "[1]", "value": 1400, "unit": "nM"},
      {"measurement": "IC50", "setting": "A549 cells", "value": 5, "unit": "µM"},
      {"measurement": "inhibited A549 growth", "setting": "A549 tumor cells", "value": 78, "unit": "%"}
    ]},
    {"compound": "glucagon", "values": [
      {"measurement": "Effect (% Change) on glucose levels", "setting": "primary rat hepatocytes [5]; [12]", "value": "+51%"},
      {"measurement": "increased glucose levels by", "setting": "primary rat hepatocytes [5]; absence of a substrate, glucagon 100 nM", "value": 51, "unit": "%"},
      {"measurement": "Effect (% Change) on glucose levels", "setting": "primary rat hepatocytes [5]; [13]", "value": "+15%"},
      {"measurement": "Effect (% Change) on glucose levels", "setting": "primary rat hepatocytes [5]; [14]", "value": "+80%"},
      {"measurement": "increased glucose levels by further", "setting": "primary rat hepatocytes [5]; substrate glycerol, glucagon 100 nM", "value": 15, "unit": "%"},
      {"measurement": "increased glucose produced by", "setting": "primary rat hepatocytes [5]; substrates lactate and pyruvate, glucagon 100 nM", "value": 80, "unit": "%"}
    ]},
    {"compound": "OCC(O)CO", "note": "[Glycerol, glycerol]", "values": [
      {"measurement": "glucose produced by the hepatocytes increased in the presence of the substrate", "setting": "primary rat hepatocytes [5]; glycerol 2 mM, controlled hemodynamics", "value": 67, "unit": "%"}
    ]},
    {"compound": "N.N.O=C([O-])C1(C(=O)[O-])CCC1.[Pt+2]", "note": "[carboplatin]", "values": [
      {"measurement": "in vivo Cmax level achieved in humans", "setting": "[1]", "value": 37000, "unit": "ng/mL"}
    ]},
    {"compound": "CN(C)CCCN1c2ccccc2Sc2ccc(Cl)cc21", "note": "[chlorpromazine]", "values": [
      {"measurement": "miRNA 122 levels in the supernatants compared to vehicle controls", "setting": "primary rat hepatocytes [6]", "value": "did not cause any change in miRNA 122 levels"},
      {"measurement": "miRNA 122 released into supernatant, over vehicle controls", "setting": "primary rat hepatocytes [6]", "value": 6, "unit": "fold"},
      {"measurement": "toxicity", "setting": "[7]; 1 μM", "value": 30.3, "unit": "%"},
      {"measurement": "toxicity", "setting": "[7]; 10 μM", "value": 46.4, "unit": "%"},
      {"measurement": "upregulation of APEX nuclease (multifunctional DNA repair enzyme)", "setting": "[8]", "value": 2.8, "unit": "fold"},
      {"measurement": "upregulation of glutathione reductase (GSR)", "setting": "[8]", "value": 8.3, "unit": "fold"},
      {"measurement": "upregulation of sorbitol dehydrogenase (SORD)", "setting": "[8]", "value": 6.9, "unit": "fold"},
      {"measurement": "upregulation of thioredoxin reductase 1 (TXNRD1)", "setting": "[8]", "value": 5.5, "unit": "fold"}
    ]},
    {"compound": "C[C@@H]1C[C@H]2[C@@H]3CCC4=CC(=O)C=C[C@]4(C)[C@@]3(F)[C@@H](O)C[C@]2(C)[C@@]1(O)C(=O)CO", "note": "[Dexamethasone, dexamethasone]", "values": [
      {"measurement": "toxicity in the controlled flow system", "setting": "primary rat hepatocytes [9]", "value": "toxic"},
      {"measurement": "3A response (cytochrome p450 activity normalized to ATP)", "setting": "cytochrome p450 3A", "value": 57.53}
    ]},
    {"compound": "C#Cc1cccc(Nc2ncnc3cc(OCCOC)c(OCCOC)cc23)c1", "note": "[erlotinib]", "values": [
      {"measurement": "in vivo Cmax level achieved in humans", "setting": "[1]", "value": 1000, "unit": "ng/mL"}
    ]},
    {"compound": "Cc1ccc2cc3c(ccc4ccccc43)c3c2c1CC3", "note": "[3-MC, 3-Methyl Cholanthrene]", "values": [
      {"measurement": "1A/1B response (cytochrome p450 activity normalized to ATP)", "setting": "cytochrome p450 1A/1B", "value": 133.06}
    ]},
    {"compound": "N.N.[Cl][Pt][Cl]", "note": "[Cisplatin, cisplatin]", "values": [
      {"measurement": "Cmax", "setting": "[1]", "value": 3000, "unit": "nM"},
      {"measurement": "IC50", "setting": "A549 cells; listed as cisplatin", "value": "> 6", "unit": "µM"},
      {"measurement": "IC50", "setting": "A549 cells", "value": "> 6", "unit": "µM"},
      {"measurement": "inhibited A549 growth", "setting": "A549 tumor cells", "value": 48, "unit": "%"},
      {"measurement": "Cmax", "setting": "[2]; listed as cisplatin", "value": "> 10000", "unit": "nM"},
      {"measurement": "Cmax", "setting": "[2]", "value": "> 10000", "unit": "nM"}
    ]},
    {"compound": "Cc1c(C)c2c(c(C)c1O)CCC(C)(COc1ccc(CC3SC(=O)NC3=O)cc1)O2", "note": "(centres unmarked) [troglitazone]", "values": [
      {"measurement": "gene expression associated with toxic response", "setting": "primary rat hepatocytes [10]", "value": "upregulation of oxidative stress-related genes and compensatory upregulation of MRP3 and MRP4 genes"},
      {"measurement": "changes in bile canalicular pattern", "setting": "primary rat hepatocytes [11]; 4 uM", "value": "changes in the canalicular pattern with visibly dilated canalicular structures"},
      {"measurement": "changes in bile canalicular pattern", "setting": "primary rat hepatocytes [11]; 40 uM", "value": "much more prominent and extensive"}
    ]},
    {"compound": "insulin", "values": [
      {"measurement": "Effect (% Change) on glucose levels", "setting": "primary rat hepatocytes [5]; [12]", "value": "−27", "unit": "%"},
      {"measurement": "decreased glucose levels by", "setting": "primary rat hepatocytes [5]; absence of a substrate", "value": 27, "unit": "%"},
      {"measurement": "Effect (% Change) on glucose levels", "setting": "primary rat hepatocytes [5]; [13]", "value": "−38", "unit": "%"},
      {"measurement": "Effect (% Change) on glucose levels", "setting": "primary rat hepatocytes [5]; [14]", "value": "−25", "unit": "%"},
      {"measurement": "decreased glucose levels by", "setting": "primary rat hepatocytes [5]; substrate glycerol", "value": 38, "unit": "%"},
      {"measurement": "decreased glucose levels by", "setting": "primary rat hepatocytes [5]; substrates lactate and pyruvate", "value": 25, "unit": "%"}
    ]}
  ]
}
